Source: US11129822B2 (priority 2016, dated 2021)

Tests used:
Sprague Dawley rats [1] = settings: rat, in vivo; cited from earlier work
Sprague Dawley rats [2] = settings: rat, in vivo

CN(C)C(=O)Oc1ccc[n+](C)c1 [pyridostigimine]
pyridostigmine-induced signs of toxicity (Sprague Dawley rats [1]): ocular discharge, nasal discharge, hypoactivity, prostration, ataxia, diarrhea, hunched posture, thin appearance and death | side effects in treated rats (Sprague Dawley rats [2]): no side effects
